Experimental findings from ChEMBL document CHEMBL1201862, “PubChem BioAssay data set” (2004) are described below.

The structures appear in SMILES notation. Active and inactive are the calls of the source.

A short description of assay [1]: inhibitors of SNCA 5'UTR-driven reporter translation, confirmation, H4 neuroglioma cells, luminescence (AID 1988). Format: functional, cell-based.
A short description of assay [2]: inhibitors of firefly luciferase expression or activity, dose response, H4 neuroglioma cells, luminescence (AID 1990). Format: functional, cell-based.
Assay [3] is described as follows: Luminescence Cell-Based Dose Response HTS to Identify Inhibitors of 5'UTR Stem-Loop Driven Prion Protein mRNA Translation in H4 Neuroglioblastoma Cells. [Related pubchem assays: 1827 (Project Summary), 1813 (Primary HTS)]. Format: functional.
The test system of assay [4] is Streptococcus sp. 'group A'. Description: growth inhibition of control SK(-) GAS strain, dose response, counter-screen for streptokinase expression inhibitor project, luminescence, kanamycin, BacTiterGlo, confirmation (AID 1900). Format: functional, organism-based.
Another assay has as its system Streptococcus. Description: Group A Streptococcus viability loss, dose response, counter-screen for streptokinase expression inhibitor project, luminescence, BacTiterGlo (AID 1915).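 Also: potency for reduction of bacterial viability or growth.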 Format: functional, organism-based. On the technique in general: The purpose of a counterscreen is to sort out artefacts and off-target activity.
The target of the next assay is T1, Streptokinase A (Streptococcus pyogenes serotype M1, UniProt P10520).
T1 sequence (P10520 whole entry): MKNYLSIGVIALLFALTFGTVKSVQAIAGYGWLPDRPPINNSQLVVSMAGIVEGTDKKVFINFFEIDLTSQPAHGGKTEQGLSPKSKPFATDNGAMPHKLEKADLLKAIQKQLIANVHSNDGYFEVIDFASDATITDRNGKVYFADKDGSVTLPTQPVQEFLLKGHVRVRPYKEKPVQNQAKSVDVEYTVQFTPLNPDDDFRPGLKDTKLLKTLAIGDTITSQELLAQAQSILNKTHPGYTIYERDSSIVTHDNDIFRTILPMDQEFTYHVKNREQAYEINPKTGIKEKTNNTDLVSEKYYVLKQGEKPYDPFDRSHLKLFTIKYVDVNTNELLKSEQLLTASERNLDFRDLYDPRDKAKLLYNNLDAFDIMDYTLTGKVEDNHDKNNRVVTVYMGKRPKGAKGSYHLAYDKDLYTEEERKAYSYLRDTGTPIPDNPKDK
Description: S. pyogenes streptokinase expression inhibitors, potency, dose response, plasminogen activation absorbance, OD405 (AID 1914).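 Also: secreted streptokinase activity via plasminogen activation per viability signal from cell pellet.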 Format: functional, Streptococcus pyogenes M1 GAS.

A short description of assay [5]: C. albicans growth with fluconazole, confirmation, fluorescence, retest (AID 2467). Format: functional, cell-based.
Assay [6] can be described thus: NIH-3T3 fibroblast cytotoxicity, dose response, cytotoxicity control, cell-based, fluorescence, Alamar Blue, secondary assay (AID 2327).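 Also: NIH-3T3 mouse fibroblasts cultured with fluconazole at 8 µg/mL.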 Format: functional. Background: Alamar Blue is a resazurin reagent that responds to reducing activity.
The target in the next assay is Cytochrome P450 2C9 (Homo sapiens, UniProt P11712).
Sequence of Cytochrome P450 2C9 (P11712 whole entry): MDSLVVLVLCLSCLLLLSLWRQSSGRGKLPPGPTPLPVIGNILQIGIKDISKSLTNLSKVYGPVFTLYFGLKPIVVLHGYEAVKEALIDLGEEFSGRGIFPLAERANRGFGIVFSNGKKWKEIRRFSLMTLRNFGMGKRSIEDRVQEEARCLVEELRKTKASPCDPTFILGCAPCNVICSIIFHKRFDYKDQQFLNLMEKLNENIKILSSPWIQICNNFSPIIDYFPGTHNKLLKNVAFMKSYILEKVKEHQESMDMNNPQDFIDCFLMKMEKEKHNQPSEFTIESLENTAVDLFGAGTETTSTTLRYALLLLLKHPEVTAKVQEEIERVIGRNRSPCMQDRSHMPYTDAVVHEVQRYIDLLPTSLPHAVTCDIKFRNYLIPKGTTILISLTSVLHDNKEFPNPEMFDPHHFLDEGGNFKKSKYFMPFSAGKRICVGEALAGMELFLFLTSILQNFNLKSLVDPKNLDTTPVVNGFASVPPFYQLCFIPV
The target of assay [7] is T2, Zinc finger protein mex-5 (Caenorhabditis elegans, UniProt Q9XUB2).
T2 sequence (Q9XUB2 whole entry): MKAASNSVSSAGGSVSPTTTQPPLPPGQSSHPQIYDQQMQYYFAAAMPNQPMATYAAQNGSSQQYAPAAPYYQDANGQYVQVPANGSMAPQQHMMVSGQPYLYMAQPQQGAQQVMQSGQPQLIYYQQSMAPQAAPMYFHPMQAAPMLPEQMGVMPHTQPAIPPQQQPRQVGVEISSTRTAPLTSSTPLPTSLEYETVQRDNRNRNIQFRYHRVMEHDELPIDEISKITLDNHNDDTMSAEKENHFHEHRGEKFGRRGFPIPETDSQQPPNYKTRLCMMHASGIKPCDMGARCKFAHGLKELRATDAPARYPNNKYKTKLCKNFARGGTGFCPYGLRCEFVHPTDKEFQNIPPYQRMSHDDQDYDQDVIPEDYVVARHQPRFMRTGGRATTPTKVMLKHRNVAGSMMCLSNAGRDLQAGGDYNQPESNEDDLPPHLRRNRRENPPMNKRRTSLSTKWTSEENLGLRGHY
Kind of assay: MEX-5/TCR-2 RNA interaction inhibitors, dose response, biochemical, C. elegans, fluorescence polarization (AID 1960). Background: Fluorescence polarisation rises when a labelled molecule tumbles more slowly, as on binding a larger partner.

The target of another assay is Cytochrome P450 2C19 (Homo sapiens, UniProt P33261). Description: Cytochrome panel assay with activity outcomes. Panel member name: p450-cyp2c19 Compounds with AC50 equal or less than 10 uM are considered active. Format: functional. The settings on record: read-out: AC50.
Sequence of Cytochrome P450 2C19 (P33261 whole entry): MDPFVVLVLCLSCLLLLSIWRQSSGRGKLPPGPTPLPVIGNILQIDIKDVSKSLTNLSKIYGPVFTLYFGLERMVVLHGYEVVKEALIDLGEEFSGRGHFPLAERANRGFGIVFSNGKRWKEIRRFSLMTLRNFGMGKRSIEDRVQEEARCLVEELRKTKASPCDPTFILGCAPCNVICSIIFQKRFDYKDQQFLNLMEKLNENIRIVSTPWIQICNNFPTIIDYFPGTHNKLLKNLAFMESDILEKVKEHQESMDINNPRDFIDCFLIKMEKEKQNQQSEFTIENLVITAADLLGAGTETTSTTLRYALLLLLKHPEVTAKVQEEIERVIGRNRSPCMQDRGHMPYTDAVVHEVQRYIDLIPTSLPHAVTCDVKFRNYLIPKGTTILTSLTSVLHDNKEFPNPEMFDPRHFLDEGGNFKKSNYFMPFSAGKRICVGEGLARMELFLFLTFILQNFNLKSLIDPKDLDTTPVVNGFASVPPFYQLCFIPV
The target in assay [8] is T3, RNA-binding protein pos-1 (Caenorhabditis elegans, UniProt G5EF15).
T3 sequence (G5EF15 whole entry): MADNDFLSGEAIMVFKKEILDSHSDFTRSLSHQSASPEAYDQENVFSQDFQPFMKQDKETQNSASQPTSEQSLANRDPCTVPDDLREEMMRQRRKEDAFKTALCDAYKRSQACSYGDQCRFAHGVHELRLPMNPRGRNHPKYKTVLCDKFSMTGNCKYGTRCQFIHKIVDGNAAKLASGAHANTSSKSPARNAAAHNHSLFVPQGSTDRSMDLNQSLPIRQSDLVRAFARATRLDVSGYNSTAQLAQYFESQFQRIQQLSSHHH
Description: inhibitors of POS-1/mex-3 RNA binding, dose response, biochemical, fluorescence polarization (AID 1964).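 Also: purified POS-1 fused to maltose binding protein made in E. coli; potency of compounds blocking POS-1 binding to fluorescent RNA.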

A further assay deals with Cytochrome P450 2D6 (Homo sapiens, UniProt P10635).
Sequence of Cytochrome P450 2D6 (P10635 whole entry): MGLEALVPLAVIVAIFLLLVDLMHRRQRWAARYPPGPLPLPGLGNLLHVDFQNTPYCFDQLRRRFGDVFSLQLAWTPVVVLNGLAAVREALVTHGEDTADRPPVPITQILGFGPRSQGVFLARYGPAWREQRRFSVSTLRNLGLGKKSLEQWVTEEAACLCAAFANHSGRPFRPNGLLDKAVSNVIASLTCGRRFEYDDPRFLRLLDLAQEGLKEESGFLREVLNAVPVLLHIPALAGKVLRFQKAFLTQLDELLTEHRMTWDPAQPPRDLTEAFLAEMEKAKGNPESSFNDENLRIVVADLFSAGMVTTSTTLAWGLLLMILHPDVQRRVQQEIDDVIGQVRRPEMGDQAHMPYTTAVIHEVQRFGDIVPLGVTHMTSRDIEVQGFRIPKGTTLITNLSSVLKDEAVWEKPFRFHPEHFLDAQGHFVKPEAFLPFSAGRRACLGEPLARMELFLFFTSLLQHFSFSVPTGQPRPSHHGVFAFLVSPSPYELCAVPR
Assay [9] can be described thus: HEp-2 cell cytotoxicity, dose response, cytotoxicity control for RSV inhibitor project, HTS (AID 2410). Format: functional. The settings on record: human respiratory syncytial virus.
The next assay is described as follows: cells. Format: functional.

The term EC50 denotes the concentration that produces a half-maximal response. Take `Cc1cc(C)c(S(=O)(=O)N(C)CC(=O)NC2CCCC2)c(C)c1`: the EC50 in assay [1], in assay [2] and in assay [3] was > 120 µM (not active) throughout.
Regarding `COc1cc(C(=O)NC(=S)N(CCc2ccccc2)CCc2ccccc2)cc(OC)c1OC`, the EC50 in assay [4] was 0.525 µM (active); in the assay on Streptococcus, 17.9 µM (active); in assay [1], 10.6 µM (active); on Streptokinase A, > 150 µM (not active); in assay [5] it was 4.2 µM (active); in assay [2], > 120 µM (not active). In addition, the EC50 is 28.6 µM (active) in assay [6] and 12.2 µM (active) in assay [3].
In the case of `COc1ccc2c(c1)c(CC(=O)Nc1cccc(S(N)(=O)=O)c1)c(C)n2C(=O)c1ccc(Cl)cc1`, the 50% effective concentration (EC50) in assay [4] is 5.48 µM (active); in the assay on Streptococcus, > 50 µM (not active); on Streptokinase A, > 150 µM (not active).
For `Cc1ccccc1N1CCN(C(=O)CCN2C(=O)c3ccccc3C2=O)CC1`, in that order: > 150 µM (not active), > 150 µM (not active) and > 150 µM (not active).
Turning to `Cc1cccc(OCC(=O)Nc2ccncc2)c1`, the EC50 (in assay [4]; with Streptococcus; on Streptokinase A) was > 150 µM (not active) throughout.
Consider `CC(C)(O)c1[nH]c2cc(F)ccc2c1C(C)(C)O`, for which the results for the EC50 (in assay [4]; with Streptococcus; at Streptokinase A) were 2.05 µM (active), 8.02 µM (active) and > 150 µM (not active), respectively.
As usually defined, the AC50 is the concentration at which the activity in the assay is half-maximal. As for `CCCN1CC=C2C(C#N)=C(N)C(C#N)(C#N)C(c3cc(OC)ccc3OC)C2C1` (centres undefined), the AC50 at Cytochrome P450 2C9 was 7.94 µM (inconclusive); at Cytochrome P450 2C19 it was 14.1 µM (inconclusive); on Cytochrome P450 2D6 it was 15.8 µM (inconclusive). Moreover, the EC50 in assay [7] was 25.5 µM (active); in assay [8], 27.9 µM (active).
Take `CN(Cc1ccc(OC(F)F)cc1)Cc1nc2c(Br)cc(Br)cc2c(=O)[nH]1`: the EC50 at Streptokinase A was 29.4 µM (active).
Regarding `CC1C(=O)C(C)C(c2ccc(Cl)cc2)NC1c1ccc(Cl)cc1` (centres undefined), the EC50 is 17.1 µM (active) in assay [1], 13.8 µM (active) in assay [2] and 15.7 µM (active) in assay [3].
By CC50 is commonly meant the concentration that lowers cell viability or growth by half. Take `Nc1[nH]nc(C2CC2)c1N=Nc1ccc(Cl)c(Cl)c1`: the EC50 in [4] was 4.36 µM (active); in the assay on Streptococcus, > 150 µM (not active); on Streptokinase A, 17 µM (active). Also, the CC50 in assay [9] was 17.5 µM (active).
Regarding `O=C(CN(Cc1ccc(F)cc1)C(=O)C1CSC(=O)C1)NC1CCCCC1` (centres undefined), the EC50 in [1], in [2] and in [3] was > 120 µM (not active) each time.
As for `COc1ccc(/C=C/C(=O)NC(=S)NNC(=O)c2ccco2)cc1OC`, the EC50 in assay [4] is 3.65 µM (active); with Streptococcus it was 25.4 µM (active); on Streptokinase A, > 150 µM (not active).
In the case of `C1CCCCCC2(CCCCC1)OCC(CN1CCOCC1)O2` (centres undefined), the EC50 in assay [1], in assay [2] and in [3] was > 120 µM (not active) each time.
In general, IC50 refers to the midpoint of a concentration-inhibition curve. Turning to `COc1cccc(OC(=O)c2cc3ccccc3oc2=O)c1`, the IC50 in the assay “cells” was > 50 µM (active).
Take `COC(=O)[C@H]1[C@H](CCc2ccccc2)NC(=O)N(Cc2ccccc2)[C@@H]1C`: the EC50 with Streptococcus and at Streptokinase A was > 150 µM (not active) each time.
Consider `COC(=O)C1(C(C[N+](=O)[O-])c2ccc(C)cc2)C(=O)NCC1c1ccco1` (centres undefined), for which the EC50 was 8.44 µM (active) in assay [4], 76.6 µM (active) in the assay on Streptococcus and > 150 µM (inconclusive) at Streptokinase A.
For `COc1cccc(C(=O)N2C(C(=O)O)CSC2c2ccccc2Cl)c1` (centres undefined), in that order: > 150 µM (not active), > 150 µM (not active) and > 150 µM (not active).
For `O=C(Nc1nnc(-c2ccc(Br)cc2)o1)c1cccc(N2C(=O)CCC2=O)c1`, in that order: 4.43 µM (active), 14.1 µM (active) and > 150 µM (not active).
On the same counts, the results for `O=C(NCc1ccc2c(c1)OCO2)C(=O)NCC1OCCN1S(=O)(=O)c1ccc(Br)cc1` (centres undefined) are > 150 µM (not active), > 150 µM (not active) and > 150 µM (inconclusive).
For the compound `CCC1CN(C(=O)N2CCC(C(=O)NCc3ccc(C)o3)CC2)c2ccccc2O1` (centres undefined), the EC50 in [1], in assay [2] and in assay [3] was > 120 µM (not active) throughout.
For the compound `Nc1nc(NCc2ccco2)nc(N2CCCCCC2)c1[N+](=O)[O-]`, the EC50 is 2.82 µM (active) in assay [4], 7.75 µM (active) in the assay with Streptococcus and > 150 µM (not active) at Streptokinase A.
Take `COc1ccc(O)c2c(=O)c3c(OC)cc4c(c3oc12)C1C=COC1O4` (centres undefined): in assay [3], the EC50 was 19.6 µM (active).
Take `O=C(NCC1CCCO1)c1ccc(CS(=O)(=O)Cc2ccc(F)cc2)o1` (centres undefined): the half-maximal effective concentration (EC50) in assay [7] and in [8] was > 300 µM (not active) in each case. Also, at Cytochrome P450 2C19, the AC50 is 39.8 µM (inconclusive).
`Cc1cc(C)n(-c2nc(SCC(=O)O)c3c4c(sc3n2)CCCC4)n1`: the EC50 in [4] was 8.77 µM (active); with Streptococcus, > 150 µM (not active); at Streptokinase A it was > 150 µM (not active).
`O=C(CN1C(=O)COc2ccc(S(=O)(=O)N3CCCCC3)cc21)NCc1ccc(F)cc1`: the EC50 (in assay [4]; with Streptococcus; on Streptokinase A) was > 150 µM (not active) throughout.
For `CC/C(=N\NC(=S)Nc1cccc(C)c1)c1ccccc1`, the EC50 in assay [4] is 12.3 µM (active); in the assay on Streptococcus, > 50 µM (not active); on Streptokinase A it was 21.3 µM (active).
As for `COc1cccc(/C=N/n2c(N)nc3ccccc32)c1OC`, the half-maximal effective concentration (EC50) (in assay [4]; in the assay with Streptococcus; on Streptokinase A) was > 150 µM (not active) each time.
`C/C(=N/NS(=O)(=O)c1ccc(Cl)cc1)c1cccc(NC(=O)c2ccc(Cl)cc2Cl)c1`: the concentration for a half-maximal effect (EC50) in assay [4] was 3.99 µM (active); with Streptococcus, 47.6 µM (active); on Streptokinase A, 23.4 µM (active).
As to `COc1ccc(C(=O)/N=C2\SC3CS(=O)(=O)CC3N2Cc2ccccc2)cc1OC` (centres undefined), the EC50 in assay [1] is > 120 µM (not active); in [2], 26.2 µM (active); in [3], 25.4 µM (active).
For the compound `C/C(CCc1oc2ccc(Cl)cc2c1-c1ccc(C)o1)=N\O`, the EC50 in assay [7] and in assay [8] was > 300 µM (not active) in each case. The CC50 in assay [9] is 37.9 µM (active).
On to `COc1ccc(N2C(N)=NC(N)=NC2(C)C)cc1`, for which the EC50 in assay [1] is 7.02 µM (active); in [2], 10 µM (active); in assay [3], > 120 µM (not active).
